Data from patent US8455397B2, “Penoxsulam as a turfgrass, vineyard and orchard floor herbicide” (Dow AgroSciences, LLC, priority 2005, dated 2013).

Assays:
dandelion (TAROF) = experiment: Granule carrier/particle size, post emergence greenhouse study; assay type: in vivo, Taraxacum officinale; settings: postemergent greenhouse
Method: (§1) Greenhouse and field studies evaluated the effect of two granule carriers and two particles sizes on the postemergent broadleaf activity of penoxsulam. The two carriers were a 46-0-0 and 28-4-12 fertilizer blend and the particle sizes averaged 0.75 mm and 2.15 mm.
(§2) Greenhouse studies were applied both post and pre-emergence to broadleaf weeds and sedge reared from seed or nutlet in 12.7″ (32.25 cm) by 8.8″ (22.35 cm) flats of a loam soil. Particle size and carrier were evaluated post emergence, carrier comparisons with the smaller particle size of 0.75 was evaluated pre-emergence. Stage of growth of species at post emergence application: PLAMA and TAROF in the 3 to 5 leaf stage, TRFRE in the 3rd tri-foliate stage and CYPES in the 3 to 4 leaf stage. Post emergence trial design was a replicated block, one species per flat, 3 replicate flats per treatment. Granule treatments were uniformly applied to individual flats on an area basis using a common hand-shaker method. Post emergence applications were made to the flat covering both soil and misted foliage. Trial was sub-irrigated daily, and watered over the top 1 time per week starting 7 days after application to simulate a natural rainfall event. Active weed growth was maintained throughout the study period. Weed control of each species in the post emergence study was assessed at 2, 3 and 4 weeks after treatment. Pre-emergence trial design was 2 species per flat, 4 replicate flats, block design. Pre-emergence applications were made to the soil surface using a common hand shaker method on an area basis. Overhead irrigation was maintained throughout the trial. Weed control of each species in the pre-emergence study was assessed at 2, 3, 4 and 5 weeks after application. Control was determined visually by comparing treated and untreated flats and scored on a 0 to 100 percent scale where 0 corresponds to no control and 100 corresponds to complete kill.

yellow nutsedge (CYPES) [1] = experiment: Pre-emergence weed nursery field study; assay type: in vivo, Cypres esculentus L.; settings: weed nursery in the field, 27 Days After Application
Method: (§3) Field studies were conducted in a non-fumigated weed nursery trial. Weed species were planted in single strips with a row planter at 36 centimeter spacing. Plot size was 3.05×9.2 meters, 4 replicate plots per treatment. Weed species were seeded at appropriate depths and later the same day pre-emergent applications were made to the soil surface. Liquid applications were made using a backpack sprayer calibrated to deliver 187 liters per hectare (L/ha). Applications were made in Fresno, Calif. in June. Sprinkler irrigation was applied at regular intervals throughout study period. Control of each weed species in the study site was made 4 weeks after treatment. Control was determined visually by comparing treated and untreated weeds and scored on a 0 to 100 percent scale where 0 corresponds to no control and 100 corresponds to complete kill or no emergence.

sun spurge (EPHHE) = experiment: Pre-emergence orchard floor weeds, greenhouse study; assay type: in vivo, Euphorbia helioscopia; settings: 28 Days After Application
Method: (§4) Greenhouse studies were conducted by seeding species in a loam soil and applying the herbicides to the soil surface using a Cornwall 5 milliliter glass syringe fitted with a TeeJet TN-3 nozzle on an area basis Immediately following herbicide application the pots were irrigated over the top to move the herbicides into the seeding zone. Pots were kept well irrigated throughout the trial. A percent visual weed control assessment was taken 4 weeks after application. Control was determined visually by comparing treated and untreated pots and scored on a 0 to 100 percent scale where 0 corresponds to no control and 100 corresponds to complete kill, or no emergence.

[2] = test system: annual sowthistle (SONOL); experiment: as above; assay type: in vivo, Sonchus oleraceus; settings: 28 Days After Application
Method: as §4

giant foxtail (SETFA) = experiment: Pre-emergence weed nursery field study; assay type: in vivo, Setaria faberi; settings: weed nursery in the field, 27 Days After Application
Method: as §3

redroot pigweed (AMARE) = experiment: Pre-emergence weed nursery field study; assay type: in vivo, Amaranthus retroflexus; settings: weed nursery in the field, 27 Days After Application
Method: as §3

[3] = test system: pennywort (dollarweed) (HYDSS); experiment: Postemergent granule herbicides, turfgrass field studies; assay type: in vivo, Hydrocotyle spp; settings: Table III, 1 site
Method: Field studies were conducted in established turfgrass sites containing a natural population of target broadleaf weeds. Replicated trials, containing a minimum of three replications and having individual plots ranging in size from 25 to 50 ft. sq (2.3 to 4.6 square meters), were initiated in the late spring when turf and weeds were actively growing. Granule treatments were uniformly applied to individual plots using a common hand-shaker method. Applications were made in the early morning when dew was present. Natural rainfall and supplemental irrigation were used to maintain healthy turf and active weed growth throughout the study period. Control of each weed species in the study site was made at 2, 4 and 8 weeks after treatment. Control was determined visually by comparing treated and untreated weeds and scored on a 0 to 100 percent scale where 0 corresponds to no control and 100 corresponds to complete kill.

[4] = test system: vine and orchard floor weeds; experiment: Vine and orchard floor weed control (general statement); assay type: in vivo; settings: APESV, AMARE, POROL, SETFA, ECHCG, ECHCO, SSYIR, SINAR, EPHHE, EROCI, MALNE, MALPA, SONOL, SENVU
yellow nutsedge (CYPES) [5] = experiment: Granule carrier comparison, pre-emergence greenhouse study; assay type: in vivo, Cypres esculentus L.; settings: pre-emergent greenhouse
Method: as §1, §2

[6] = carrier 28-4-12, particle size 0.75 mm, 5.6 gai/Ha
[7] = carrier 28-4-12, particle size 0.75 mm, 11.2 gai/Ha
[8] = carrier 28-4-12, particle size 0.75 mm, 22.4 gai/Ha
[9] = carrier 46-0-0, particle size 0.75 mm, 5.6 gai/Ha
[10] = carrier 46-0-0, particle size 0.75 mm, 11.2 gai/Ha
[11] = carrier 46-0-0, particle size 0.75 mm, 22.4 gai/Ha

COc1cnc(OC)n2nc(NS(=O)(=O)c3c(OCC(F)F)cccc3C(F)(F)F)nc12 [Penoxsulam, 2-(2,2-difluoroethoxy)-N-(5,8-dimethoxy[1,2,4]triazolo[1,5-c]-pyrimidin-2-yl)-6-(trifluoromethyl)benzenesulfonamide]
Percent Weed Control 27-30 DAA (dandelion (TAROF); [6]): 50%
Percent Weed Control 27-30 DAA (dandelion (TAROF); [7]): 88%
Percent Weed Control 27-30 DAA (dandelion (TAROF); [8]): 97%
Percent Weed Control 27-30 DAA (dandelion (TAROF); carrier 28-4-12, particle size 2.15 mm, 5.6 gai/Ha): 23%
Percent Weed Control 27-30 DAA (dandelion (TAROF); carrier 28-4-12, particle size 2.15 mm, 11.2 gai/Ha): 60%
Percent Weed Control 27-30 DAA (dandelion (TAROF); carrier 28-4-12, particle size 2.15 mm, 22.4 gai/Ha): 68%
Percent Weed Control 27-30 DAA (dandelion (TAROF); [9]): 55%
Percent Weed Control 27-30 DAA (dandelion (TAROF); [10]): 67%
Percent Weed Control 27-30 DAA (dandelion (TAROF); [11]): 98%
Percent Weed Control 27-30 DAA (dandelion (TAROF); carrier 46-0-0, particle size 2.15 mm, 5.6 gai/Ha): 23%
Percent Weed Control 27-30 DAA (dandelion (TAROF); carrier 46-0-0, particle size 2.15 mm, 11.2 gai/Ha): 48%
Percent Weed Control 27-30 DAA (dandelion (TAROF); carrier 46-0-0, particle size 2.15 mm, 22.4 gai/Ha): 60%
Pre-emergent Percent Mean Control (yellow nutsedge (CYPES) [1]; 8.8 gai/Ha): 69%
Pre-emergent Percent Mean Control (yellow nutsedge (CYPES) [1]; 17.5 gai/Ha): 81%
Pre-emergent Percent Mean Control (yellow nutsedge (CYPES) [1]; 35 gai/Ha): 88%
Pre-emergent Percent Mean Control (yellow nutsedge (CYPES) [1]; 70 gai/Ha): 94%
Pre-emergent Percent Mean Control (sun spurge (EPHHE); 8.8 gai/Ha): 87%
Pre-emergent Percent Mean Control (sun spurge (EPHHE); 17.5 gai/Ha): 97%
Pre-emergent Percent Mean Control (sun spurge (EPHHE); 35 gai/Ha): 98%
Pre-emergent Percent Mean Control (sun spurge (EPHHE); 70 gai/Ha): 100%
Pre-emergent Percent Mean Control ([2]; 8.8 gai/Ha): 72%
Pre-emergent Percent Mean Control ([2]; 17.5 gai/Ha): 78%
Pre-emergent Percent Mean Control ([2]; 35 gai/Ha): 82%
Pre-emergent Percent Mean Control ([2]; 70 gai/Ha): 87%
Pre-emergent Percent Mean Control (giant foxtail (SETFA); 8.8 gai/Ha): 70%
Pre-emergent Percent Mean Control (giant foxtail (SETFA); 17.5 gai/Ha): 78%
Pre-emergent Percent Mean Control (giant foxtail (SETFA); 35 gai/Ha): 88%
Pre-emergent Percent Mean Control (giant foxtail (SETFA); 70 gai/Ha): 96%
Pre-emergent Percent Mean Control (redroot pigweed (AMARE); 8.8 gai/Ha): 100%
Pre-emergent Percent Mean Control (redroot pigweed (AMARE); 17.5 gai/Ha): 100%
Pre-emergent Percent Mean Control (redroot pigweed (AMARE); 35 gai/Ha): 100%
Pre-emergent Percent Mean Control (redroot pigweed (AMARE); 70 gai/Ha): 100%
Mean Percent Weed Control ([3]; 4 Weeks After Treatment, 22.4 gai/Ha): 50%
Mean Percent Weed Control ([3]; 4 Weeks After Treatment, 44.9 gai/Ha): 97%
Mean Percent Weed Control ([3]; 4 Weeks After Treatment, 67.3 gai/Ha): 98%
Mean Percent Weed Control ([3]; 4 Weeks After Treatment, 100 gai/Ha): 100%
Mean Percent Weed Control ([3]; 8 Weeks After Treatment, 22.4 gai/Ha): 40%
Mean Percent Weed Control ([3]; 8 Weeks After Treatment, 44.9 gai/Ha): 93%
Mean Percent Weed Control ([3]; 8 Weeks After Treatment, 67.3 gai/Ha): 84%
Mean Percent Weed Control ([3]; 8 Weeks After Treatment, 100 gai/Ha): 97%
effectiveness in controlling vine and orchard floor weeds [4]: effective
Percent Weed Control 35 DAA (yellow nutsedge (CYPES) [5]; [6]): 60%
Percent Weed Control 35 DAA (yellow nutsedge (CYPES) [5]; [7]): 70%
Percent Weed Control 35 DAA (yellow nutsedge (CYPES) [5]; [8]): 89%
Percent Weed Control 35 DAA (yellow nutsedge (CYPES) [5]; [9]): 37%
Percent Weed Control 35 DAA (yellow nutsedge (CYPES) [5]; [10]): 57%
Percent Weed Control 35 DAA (yellow nutsedge (CYPES) [5]; [11]): 79%
